# Literature values in patent publication EP2033945A1, “Quaternary ammonium salts” (Infineum International Limited, priority 2007, dated 2009).
# Settings: first dissociation constant where the acid is polybasic; from CRC Handbook of Chemistry and Physics, 68th edition, page D161
row,Compound,pKa
1,O=C(O)c1ccccc1C(=O)O [phthalic acid],2.9
2,"O=C(O)c1c(O)cc(O)cc1O [2,4,6-trihydroxybenzoic acid]",1.7
